Laboratory results taken from US7666845B2, “Compounds having inhibitory activity against sodium-dependent glucose transporter” (Janssen Pharmaceutica N.V., priority 2006, dated 2010).

Molecular target: T1, human SGLT2 (Homo sapiens, UniProt P31639)
T1 construct: expressed in transfected cells; host or cells: CHOK1 (Chinese hamster ovary) cells under Geneticin selection
T1 sequence (P31639 1-672): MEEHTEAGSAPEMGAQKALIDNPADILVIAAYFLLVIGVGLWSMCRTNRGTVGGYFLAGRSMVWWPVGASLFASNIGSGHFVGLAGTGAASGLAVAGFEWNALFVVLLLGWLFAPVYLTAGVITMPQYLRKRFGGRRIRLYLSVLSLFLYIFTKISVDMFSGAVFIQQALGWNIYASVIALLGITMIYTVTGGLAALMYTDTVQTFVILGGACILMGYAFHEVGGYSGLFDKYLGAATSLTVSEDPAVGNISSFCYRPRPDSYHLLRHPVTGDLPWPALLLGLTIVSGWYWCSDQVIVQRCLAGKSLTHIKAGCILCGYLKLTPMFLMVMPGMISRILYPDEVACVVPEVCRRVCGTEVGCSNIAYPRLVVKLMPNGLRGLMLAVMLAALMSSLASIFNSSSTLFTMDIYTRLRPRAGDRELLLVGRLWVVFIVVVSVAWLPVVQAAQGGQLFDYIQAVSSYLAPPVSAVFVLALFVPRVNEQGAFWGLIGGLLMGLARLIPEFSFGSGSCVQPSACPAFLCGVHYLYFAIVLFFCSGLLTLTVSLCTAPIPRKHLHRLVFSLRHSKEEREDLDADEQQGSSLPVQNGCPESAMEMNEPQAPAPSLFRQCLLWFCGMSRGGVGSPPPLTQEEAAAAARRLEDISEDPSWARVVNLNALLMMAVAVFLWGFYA
Test: 14C-AMG uptake in CHOK1 cells expressing human SGLT2
Type: cell-based
Details: 14C-AMG 0.5 mM, 2 hours at 37° C., read-out: Human SGLT2 inhibition IC50
Description: CHOK1 cells expressing human SGLT2 were seeded in 96-well white walled plates at a density of 50,000 cells/well in F-12 nutrient mixture (Ham's F-12) containing 10% fetal bovine serum, 400 μg/ml Geneticin, 50 units/ml sodium penicillin G (Gibco-BRL) and 50 μg/ml streptomycin sulfate. After 2 days of culture at 37° C. in a humidified atmosphere containing 5% CO2, cells were washed once with the assay buffer (137 mM NaCl, 5 mM KCl, 1 mM CaCl2, 1 mM MgCl2, 50 mM Hepes, and 20 mM Tris, pH 7.4) and incubated with 80 μl of the buffer containing test compounds for 10 min at 37° C. Test compounds were dissolved in DMSO. The final concentration of DMSO was 0.5%. The transport reaction was initiated by addition of 20 μl [^14C]-methyl-α-D-glucopyranoside (^14C-AMG, 0.08 uCi per well) solution (final concentration, 0.5 mM). After incubation for 2 hours at 37° C., the uptake was stopped by aspiration of the incubation mixture, the cells were washed three times with ice-cold PBS. Then, cells were solubilized with 0.3 N NaOH and scintalin was added for determination of radioactivity by a liquid scintillation counter. Nonspecific AMG uptake was defined as that which occurred in the presence of 100 μM of phlorizin, a specific inhibitor of sodium-dependent glucose cotransporter. Specific uptake was normalized for the protein concentrations measured by the method of Bradford. […]

SMILES: Cc1ccc(C2OC(C(=O)O)C(O)C(O)C2O)cc1Cc1ccc(-c2ccc(F)cc2)s1 (stereo not shown) [Compound 1, 6-{3-[5-(4-Fluoro-phenyl)-thiophen-2-ylmethyl]-4-methyl-phenyl}-3,4,5-trihydroxy-tetrahydro-pyran-2-carboxylic acid]
- IC50: 1.1 µM
